“Also recorded” adds a separate entry of the source. Structures can show the parent of a compound that is named as a salt.
Legend:
primary cortical neurons [1] = assay: Secondary screening: TUNEL apoptosis assay after 2 hours OGD, compounds given at or after reoxygenation; type: cell-based, Spraque-Dawley rat; settings: for dose providing maximum neuroprotection against OGD-induced apoptosis (optimal dose): at reoxygenation after 2 hours OGD; for neuroprotection when administered after reoxygenation onset (time course): optimal dose given 0, 15, 30, 60 minutes after reoxygenation onset after 2 hours OGD
Procedure: Cortical neurons were obtained from Spraque-Dawley rat embryos at day 18 of gestation. Cortices were triturated and pre-plated 4 times for 30 minutes in 150 mm vacuum-plasma treated dishes (BD). During these pre-plating steps, primarily non-neuronal cells adhere to the dish, thereby enriching the neuronal population. Enriched neurons were plated in Neurobasal medium containing 2% fetal bovine serum (FBS), 25 μM Glutamax, and penicillin-streptomycin (Gibco) in poly-D-lysine-coated white clear-bottomed 96-well plates or 24-well plates (Becton-Dickinson) at a density of 50×10^3/cm^2. Twenty-four hours later (1 day in vitro, 1 DIV), 50% of the medium was replaced with Neurobasal medium, 2% B27 (Gibco), and 4 μM cytosine arabinoside (AraC) (2 μM AraC final). At 5 DIV, 50% of the medium was replaced with Neurobasal, 2% B27. At 7 DIV, cortical cultures were 98% neurons as assessed by microtubule-associated protein 2 (MAP2) antibody labeling and flow cytometry analysis (data not shown). In vitro experiments were performed in quadruplicate and results are shown as means with standard deviation.
Neuroprotection by candidate compounds was assayed by measurement of apoptosis using terminal deoxynucleotidyl transferase dUTP nick end labeling (TUNEL) reagents as described previously.^6 At 7 DIV, primary neurons grown on poly-D-lysine-coated 22 mm-diameter cover slips in 24-well plates underwent 2 hours of OGD and were treated with a range of doses of each compound at reoxygenation. Compounds providing greater than 2-fold protection over vehicle were then administered at the optimal dose after OGD at intervals of 0, 15, 30, and 60 minutes post-reoxygenation.

[2] = tested on: spontaneously hypertensive rats (SHR); assay: Middle cerebral artery occlusion (MCAO) model of transient focal ischemia; type: in vivo, rat
Excerpt: All animal procedures were approved by the University of New Mexico Institutional Animal Care and Use Committee and were in compliance with federal guidelines. Male spontaneously hypertensive rats (SHR) weighing 290-300 g were obtained from Charles River Laboratories. Animals were anesthetized with 2% isoflurane inhalant during all surgical procedures. The right common carotid artery (CCA) was ligated approximately 6 mm caudal to the bifurcation of the external and internal carotid arteries. With a vascular clamp in place on the CCA immediately caudal to the bifurcation, an incision was made in the CCA 5 mm caudal to the clamp and a nylon suture (Doccol Corporation) 30 mm in length with a 2-3 mm silicone coated tip (0.39 mm diameter) was advanced into the CCA lumen and secured in place with 2 4-0 silk sutures spaced 3 mm apart and tied loosely around the CCA caudal to the clamp. The clamp was removed and the suture advanced into the internal carotid artery until resistance was felt. In this position, the filament occludes the MCA origin and MCA territory becomes ischemic. The suture was secured with the 2 silk sutures around the CCA. […] Edema-corrected infarct volume was calculated by subtracting the area of non-infarcted tissue in the ipsilateral hemisphere from the total volume of the contralateral hemisphere. Infarct volume was quantified using Image J software.

primary cortical neurons [3] = assay: High-throughput oxygen-glucose deprivation (OGD) screen of the Prestwick Chemical Library, CytotoxGlo dead/live cell protease ratio; type: cell-based, Spraque-Dawley rat; settings: pretreatment, 10 μM, pure cortical neurons
Procedure: The Prestwick Chemical Library (Prestwick Chemical) was screened for neuroprotection in OGD by pre-treating 7 DIV cortical neurons in 96-well dishes with 10 μM compounds for 30 minutes. All liquid handling was automated and performed by a Beckman Coulter Biomek NX multichannel pipettor. The pretreatment medium was transferred to a clean plate for storage and was kept at 37° C. in a 5% CO2 environment during the OGD exposure. After pretreatment, cells were washed 3 times with deoxygenated glucose-free Hank's buffered saline solution (HBSS), pH 7.4, to remove glucose and oxygen and were covered with 100 μl HBSS. HBSS was deoxygenated in a gas washing bottle with 60 liters of 95% nitrogen, 5% CO2 per 250 ml HBSS. HBSS was maintained at 37° C. during deoxygenation in a water bath. Compounds were added to wells and plates were sealed with sealing tape and placed in a 37° C. incubator for 2 hours (OGD). After 2 hours, HBSS was removed and pretreatment medium was returned to the wells. After 24 hours, neuronal death was quantified using CytotoxGlo reagents (Promega) and a Victor^3 V luminometer (Perkin Elmer) according to the manufacturer's instructions. Eight wells per dish were used as DMSO-treated vehicle-only controls. […]

| Compound | dose providing maximum neuroprotection against OGD-induced apoptosis (optimal dose) (primary cortical neurons [1]; 0.01 to 100 nM tested) | neuroprotection when administered after reoxygenation onset (time course) (primary cortical neurons [1]) | neuroprotection in the high-throughput screen (in words) (primary cortical neurons [3]) | further results |
| --- | --- | --- | --- | --- |
| C[C@H](COc1ccccc1)N[C@H](C)[C@H](O)c1ccc(O)cc1 (racemic) [Isoxsuprine hydrochloride, 4-{1-hydroxy-2-[(1-methyl-2-phenoxyethyl)amino]propyl}phenol] | 1 nM | no loss of efficacy; also recorded: no decrease in neuroprotection; also recorded: no loss of neuroprotection |  | total edema-corrected infarct volume ([2]; 1 mg/kg IV at onset of reperfusion after 90-minute MCAO, 24 hours reperfusion, vehicle 279±25, n=7): 137±18 mm^3; reduction of infarct volume versus vehicle ([2]; single dose 1 mg/kg IV at reperfusion): reduced infarct volume by half |
| NC(=O)OCC(O)COc1ccc(Cl)cc1 (centres unmarked) [Chlorphenesin carbamate] |  | no decrease in neuroprotection; also recorded: no loss of neuroprotection |  | dose providing maximum neuroprotection against OGD-induced apoptosis (optimal dose) (primary cortical neurons [1]; 100 to 300 μM tested): 200000 nM |
| CCNCC(O)c1cccc(O)c1 (centres unmarked) [Etilefrine hydrochloride] | 1 nM |  |  | neuroprotection when administered after reoxygenation onset (time course) (primary cortical neurons [1]; listed as etilifrine, hydrochloride): significantly decreased; also recorded: significant decrease in neuroprotection |
| CN1CCN2c3ccccc3Cc3ccccc3C2C1 (centres unmarked) [Mianserine hydrochloride] |  |  | highly protective | neuroprotection in the secondary screen (in words) (primary cortical neurons [1]; given at reoxygenation): ineffective |
| CC(C)(C)NCC(O)c1cc(Cl)c(N)c(Cl)c1 (centres unmarked) [clenbuterol] |  |  | not identified as a neuroprotective compound |  |

Reference: US10220008B2, “Treatment and prevention of stroke and other neurological disorders” (STC.UNM, priority 2013, dated 2019)
